Laboratory results from PMC4671956, “Exploiting Transient Protein States for the Design of Small-Molecule Stabilizers of Mutant p53” (Structure(London, England:1993), 2015).

Experiments:
[1] = biological target: T1, p53 Y220C mutant (Homo sapiens, UniProt P04637, M133L/N239Y/N268D/V203A/Y220C); parameters: method as in Boeckler et al., 2008; settings: ref Boeckler et al., 2008; cited from earlier work
[2] = biological target: T1, p53 Y220C mutant; parameters: method as in Boeckler et al., 2008; settings: ref Boeckler et al., 2008; cited from earlier work; remark: listed apart in the source
[3] = biological target: T1, p53 Y220C mutant; assay: Dissociation constant by nuclear magnetic resonance spectroscopy (NMR); type: binding
Experimental: (§1) Dissociation constants for the binding of ligands to the p53 Y220C mutant were determined by either nuclear magnetic resonance spectroscopy or isothermal calorimetry as described by [Wilcken et al. (2012a)].

[4] = biological target: T1, p53 Y220C mutant; assay: Dissociation constant by isothermal calorimetry (ITC); type: binding
Experimental: as §1

[5] = test system: cancer cell lines expressing the Y220C mutant; parameters: method as in Liu et al., 2013; settings: ref Liu et al., 2013; cited from earlier work
[6] = NMR, p53-Y220C ligand complex, read-out: KD

Question: What does the source list for `CCn1c2ccccc2c2cc(CNC)ccc21` [Compound 1, PhiKan083]?
Answer: effect on melting temperature of the protein [1]: raises the melting temperature of the protein; effect on rate of aggregation [2]: slows down its rate of aggregation

Question: With `CCc1cccc2c(C3CCNCC3)c[nH]c12` [Compound 2] as the molecule, how does the Kd [3, 6] read?
Answer: 470 ± 90 µM

Question: Which “ligand efficiency [LE]” value ([3]; from KD = 820 μM (NMR)) does the source give for `O=C(O)c1cc(I)cc(I)c1O` [Compound 4] here?
Answer: 0.35 kcal/mol per non-hydrogen atom

Question: Which Kd [3] does the source give for `CCc1cc(Br)cc2c(CCN)c(C)[nH]c12` [Compound 6] here?
Answer: 940 ± 110 µM

Question: Which Kd [3, 6] does the source give for `CN(C)CCn1cc(-c2ccc(F)cc2)c(-n2cccc2)n1` [Compound 7, PhiKan7242] here?
Answer: 2400 µM

Question: For `Nc1ccc(C(F)(F)F)cc1N` [Compound 8], which Kd [3, 6] is on record?
Answer: > 10000 µM

Question: What does the source list for `O=C(O)c1cc(I)c(-n2cccc2)c(I)c1O` [Compound 9]?
Answer: Kd ([4]; ITC, p53-Y220C ligand complex): 21 µM; increase in affinity ([4]; compound 9 relative to scaffold 4 without pyrrole): 40 fold; ligand efficiency [LE] ([4]; from KD = 21 μM (ITC)): 0.38 kcal/mol per non-hydrogen atom

Question: For `c1ccn(-c2oc(C3CC3)nc2-c2nnn[nH]2)c1` [Compound 10], which Kd [3, 6] is on record?
Answer: > 2000 µM

Question: With `Nc1cc(C(F)(F)F)cc(Br)c1N` [Compound 11] as the molecule, how does the Kd [3, 6] read?
Answer: 4800 µM

Question: With `O=C(Nc1ccc(Cl)cc1O)C1CCNCC1` [Compound 12] as the molecule, how does the Kd [3, 6] read?
Answer: 1270 µM

Question: Which “biological activity in cancer cell lines” value [5] does the source give for `Cn1cc(-c2ccccc2)c(-n2cccc2)n1` [PhiKan7088] here?
Answer: biologically active
